Assay results published in patent US9309242B2, “Substituted pyrido[2,3-b]pyrazines as FGFR kinase inhibitors” (priority 2011, dated 2016).

Tests used:
KDR (h) = KDR (h) (Homo sapiens, UniProt P35968); experiment: KDR (VEGFR2) (enzymatic assay), TR-FRET; format: biochemical; settings: read-out: VEGFR 2 (KDR) pIC50 (converted)
How it was run: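 Phosphorylation of biotinylated Flt3 peptide (500 nM) by 150 ng/ml enzyme was measured at 3 μM ATP in Mn2+-containing HEPES buffer, pH 7.5, over 120 min at room temperature. Detection used Eu-anti-P-Tyr and SA-XL-665 TR-FRET.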

[1] = tested on: Ba/F3-KDR-transfected cells; experiment: Ba/F3-KDR (plus IL3) cellular proliferation assay, counterscreen with 10 ng/ml murine IL3; format: cell-based; settings: plus IL3 (10 ng/ml murine IL3, counterscreen); read-out: BAF3-KDR (PLUS IL3) pIC50 (converted)
How it was run: (§1)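 Compound in DMSO was dispensed first, then transfected cells in serum-containing RPMI-1640 were added. After a 24 h incubation, viability was gauged by resazurin reduction over 4 h, measured as fluorescence.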

[2] = tested on: Ba/F3-FGFR1-transfected cells; experiment: Ba/F3-FGFR1 (plus IL3) cellular proliferation assay, counterscreen with 10 ng/ml murine IL3; format: cell-based; settings: plus IL3 (10 ng/ml murine IL3, counterscreen); read-out: BAF3-FGFR1 (PLUS IL3) pIC50 (converted)
How it was run: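 Proliferation read-out: resazurin-based Alamar Blue fluorescence (540/590 nm) after 4 h, following 24 h compound treatment of 20000 Ba/F3-FGFR1 cells per well in 10% FBS RPMI at 37° C. IL3 counterscreen used the same protocol plus 10 ng/ml murine IL3.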

[3] = molecular target: T1, Ba/F3-FGFR1-transfected cells (Homo sapiens, UniProt P11362); experiment: Ba/F3-FGFR1 (minus IL3) cellular proliferation assay, Alamar Blue; format: cell-based
T1 construct: BAF3-FGFR1 (MIN IL3) pIC50; other: minus IL3
T1 sequence (P11362 whole entry, change not shown): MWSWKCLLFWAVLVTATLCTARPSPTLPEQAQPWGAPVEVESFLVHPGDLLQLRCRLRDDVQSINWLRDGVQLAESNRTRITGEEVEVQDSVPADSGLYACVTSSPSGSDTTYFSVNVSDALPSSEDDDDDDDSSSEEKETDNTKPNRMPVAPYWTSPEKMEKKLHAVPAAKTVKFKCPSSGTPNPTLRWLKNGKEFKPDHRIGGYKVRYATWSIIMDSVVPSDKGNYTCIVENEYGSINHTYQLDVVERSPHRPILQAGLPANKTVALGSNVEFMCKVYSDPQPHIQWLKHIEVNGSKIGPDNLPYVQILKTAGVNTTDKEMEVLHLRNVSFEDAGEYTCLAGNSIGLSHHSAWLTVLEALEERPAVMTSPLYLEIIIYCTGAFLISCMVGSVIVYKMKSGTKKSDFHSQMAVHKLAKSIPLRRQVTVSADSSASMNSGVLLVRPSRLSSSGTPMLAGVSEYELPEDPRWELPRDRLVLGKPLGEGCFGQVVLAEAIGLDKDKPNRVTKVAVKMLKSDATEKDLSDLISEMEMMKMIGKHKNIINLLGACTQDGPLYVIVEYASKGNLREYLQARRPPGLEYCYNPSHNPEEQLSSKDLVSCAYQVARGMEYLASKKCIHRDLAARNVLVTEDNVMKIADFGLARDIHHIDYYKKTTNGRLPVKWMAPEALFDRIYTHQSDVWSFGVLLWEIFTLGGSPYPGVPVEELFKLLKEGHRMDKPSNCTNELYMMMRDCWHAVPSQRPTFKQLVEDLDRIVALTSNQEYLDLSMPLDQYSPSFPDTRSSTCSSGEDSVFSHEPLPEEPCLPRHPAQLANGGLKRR
How it was run: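 Viability was measured by resazurin reduction (fluorescence, 540 nm excitation/590 nm emission) after a 4 h Alamar Blue incubation. This followed 24 h of compound treatment at 37 °C, 5% CO2, of 20000 FGFR1-transfected Ba/F3 cells per well in 10% FBS RPMI-1640.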

[4] = tested on: Ba/F3-FGFR3-transfected cells; experiment: Ba/F3-FGFR3 (plus IL3) cellular proliferation assay, counterscreen with 10 ng/ml murine IL3; format: cell-based; settings: plus IL3 (10 ng/ml murine IL3, counterscreen); read-out: BAF3-FGFR3 (PLUS IL3) pIC50 (converted)
How it was run: (§2)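 Viability readout was resazurin reduction (ex 540/em 590 nm) after 4 h, following 24 h compound treatment at 37 °C of FGFR3-transfected Ba/F3 cells (20000/well, RPMI-1640/10% FBS). IL3-dependent counterscreen used identical conditions plus 10 ng/ml murine IL3.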

[5] = molecular target: T2, Ba/F3-FGFR3-transfected cells (Homo sapiens, UniProt P22607); experiment: Ba/F3-FGFR3 (minus IL3) cellular proliferation assay, Alamar Blue; format: cell-based
T2 construct: BAF3-FGFR3 (MIN IL3) pIC50; other: minus IL3
T2 sequence (P22607 whole entry, change not shown): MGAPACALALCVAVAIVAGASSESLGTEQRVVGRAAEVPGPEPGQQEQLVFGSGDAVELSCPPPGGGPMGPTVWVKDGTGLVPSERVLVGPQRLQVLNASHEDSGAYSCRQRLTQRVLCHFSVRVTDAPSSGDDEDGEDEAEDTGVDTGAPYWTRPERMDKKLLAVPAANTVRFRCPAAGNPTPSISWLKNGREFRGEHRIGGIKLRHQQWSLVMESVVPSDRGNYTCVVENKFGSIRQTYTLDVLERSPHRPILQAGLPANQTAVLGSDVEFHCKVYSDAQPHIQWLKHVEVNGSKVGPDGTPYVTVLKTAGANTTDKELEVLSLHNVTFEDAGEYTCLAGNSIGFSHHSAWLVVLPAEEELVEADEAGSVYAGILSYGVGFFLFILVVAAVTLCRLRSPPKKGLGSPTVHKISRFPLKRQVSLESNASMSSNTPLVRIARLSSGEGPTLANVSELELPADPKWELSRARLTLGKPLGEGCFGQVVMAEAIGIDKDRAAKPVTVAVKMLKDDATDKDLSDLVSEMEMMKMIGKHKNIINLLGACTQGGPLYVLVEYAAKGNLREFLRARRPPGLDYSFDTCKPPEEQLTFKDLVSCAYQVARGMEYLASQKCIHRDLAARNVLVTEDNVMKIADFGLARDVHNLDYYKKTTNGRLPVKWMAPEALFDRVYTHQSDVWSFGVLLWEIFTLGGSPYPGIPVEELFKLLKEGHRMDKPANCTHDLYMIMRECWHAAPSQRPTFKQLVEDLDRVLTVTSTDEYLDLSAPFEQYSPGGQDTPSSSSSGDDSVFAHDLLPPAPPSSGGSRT
How it was run: as §2

FGFR3 (h) = FGFR3 (h) (Homo sapiens, UniProt P22607); experiment: FGFR3 (enzymatic assay), TR-FRET; format: biochemical; settings: read-out: FGFR 3 pIC50 (converted)
FGFR3 (h), sequence (P22607 23-806): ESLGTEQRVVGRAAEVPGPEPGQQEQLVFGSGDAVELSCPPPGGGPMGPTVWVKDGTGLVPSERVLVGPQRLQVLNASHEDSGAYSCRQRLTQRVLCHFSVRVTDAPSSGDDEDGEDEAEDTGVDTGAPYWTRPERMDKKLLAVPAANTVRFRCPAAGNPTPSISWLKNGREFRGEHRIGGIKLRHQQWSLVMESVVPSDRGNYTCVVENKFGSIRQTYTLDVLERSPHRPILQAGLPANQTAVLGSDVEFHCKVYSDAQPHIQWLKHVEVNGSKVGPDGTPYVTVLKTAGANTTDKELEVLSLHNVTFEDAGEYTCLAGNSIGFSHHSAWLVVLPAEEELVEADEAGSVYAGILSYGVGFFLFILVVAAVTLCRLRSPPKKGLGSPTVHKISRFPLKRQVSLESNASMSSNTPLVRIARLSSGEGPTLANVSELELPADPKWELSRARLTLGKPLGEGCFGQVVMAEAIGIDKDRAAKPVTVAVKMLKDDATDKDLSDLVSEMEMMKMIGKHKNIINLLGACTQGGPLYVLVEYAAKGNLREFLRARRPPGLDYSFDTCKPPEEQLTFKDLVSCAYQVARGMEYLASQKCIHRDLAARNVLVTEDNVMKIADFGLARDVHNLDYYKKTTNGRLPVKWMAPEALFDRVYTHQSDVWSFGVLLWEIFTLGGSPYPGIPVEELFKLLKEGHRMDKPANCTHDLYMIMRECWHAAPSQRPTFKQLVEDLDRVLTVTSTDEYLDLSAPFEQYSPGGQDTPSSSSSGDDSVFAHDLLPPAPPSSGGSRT
Excerpt: Time-Resolved Fluorescence Resonance Energy Transfer (TR-FRET) signal (ex340 nm.

[6] = molecular target: T3, Ba/F3-KDR-transfected cells (Homo sapiens, UniProt P35968); experiment: Ba/F3-KDR (minus IL3) cellular proliferation assay, Alamar Blue; format: cell-based
T3 construct: BAF3-KDR (MIN IL3) pIC50; other: minus IL3
T3 sequence (P35968 whole entry, change not shown): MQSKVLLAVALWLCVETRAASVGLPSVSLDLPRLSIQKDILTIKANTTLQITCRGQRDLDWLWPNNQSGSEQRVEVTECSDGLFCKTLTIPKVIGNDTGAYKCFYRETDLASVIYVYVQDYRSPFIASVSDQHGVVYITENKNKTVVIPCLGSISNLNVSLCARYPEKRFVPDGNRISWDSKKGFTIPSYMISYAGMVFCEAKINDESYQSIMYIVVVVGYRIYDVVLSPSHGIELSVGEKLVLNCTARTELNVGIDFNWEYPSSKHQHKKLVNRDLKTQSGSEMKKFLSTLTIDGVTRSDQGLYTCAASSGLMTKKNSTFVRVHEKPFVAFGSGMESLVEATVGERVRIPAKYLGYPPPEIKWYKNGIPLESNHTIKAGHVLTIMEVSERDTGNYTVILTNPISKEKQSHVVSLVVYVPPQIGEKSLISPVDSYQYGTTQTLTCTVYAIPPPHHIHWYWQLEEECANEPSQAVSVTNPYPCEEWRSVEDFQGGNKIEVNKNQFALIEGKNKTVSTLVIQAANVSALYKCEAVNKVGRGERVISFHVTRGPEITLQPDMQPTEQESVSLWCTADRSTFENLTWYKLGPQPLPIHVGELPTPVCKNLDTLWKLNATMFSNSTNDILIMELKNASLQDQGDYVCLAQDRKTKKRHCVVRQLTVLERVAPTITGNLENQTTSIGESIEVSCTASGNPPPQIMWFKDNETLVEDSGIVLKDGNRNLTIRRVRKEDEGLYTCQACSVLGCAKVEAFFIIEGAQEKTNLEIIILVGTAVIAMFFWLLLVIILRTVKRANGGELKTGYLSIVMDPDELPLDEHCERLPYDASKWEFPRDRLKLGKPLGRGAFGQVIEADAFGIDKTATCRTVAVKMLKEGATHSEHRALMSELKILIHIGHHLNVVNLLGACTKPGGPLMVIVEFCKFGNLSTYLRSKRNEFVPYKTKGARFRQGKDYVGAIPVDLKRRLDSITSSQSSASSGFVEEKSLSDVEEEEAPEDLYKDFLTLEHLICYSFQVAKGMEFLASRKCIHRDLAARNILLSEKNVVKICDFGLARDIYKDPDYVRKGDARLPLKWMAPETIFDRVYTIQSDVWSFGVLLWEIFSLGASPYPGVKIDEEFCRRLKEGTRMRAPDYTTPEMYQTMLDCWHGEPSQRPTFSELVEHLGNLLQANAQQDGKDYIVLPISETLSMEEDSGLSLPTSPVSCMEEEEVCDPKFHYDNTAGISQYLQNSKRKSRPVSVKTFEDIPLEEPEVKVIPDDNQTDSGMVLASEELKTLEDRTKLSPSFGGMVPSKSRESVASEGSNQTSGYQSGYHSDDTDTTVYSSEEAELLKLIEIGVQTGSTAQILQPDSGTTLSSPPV
How it was run: as §1

KDR (h), sequence (P35968 20-1356): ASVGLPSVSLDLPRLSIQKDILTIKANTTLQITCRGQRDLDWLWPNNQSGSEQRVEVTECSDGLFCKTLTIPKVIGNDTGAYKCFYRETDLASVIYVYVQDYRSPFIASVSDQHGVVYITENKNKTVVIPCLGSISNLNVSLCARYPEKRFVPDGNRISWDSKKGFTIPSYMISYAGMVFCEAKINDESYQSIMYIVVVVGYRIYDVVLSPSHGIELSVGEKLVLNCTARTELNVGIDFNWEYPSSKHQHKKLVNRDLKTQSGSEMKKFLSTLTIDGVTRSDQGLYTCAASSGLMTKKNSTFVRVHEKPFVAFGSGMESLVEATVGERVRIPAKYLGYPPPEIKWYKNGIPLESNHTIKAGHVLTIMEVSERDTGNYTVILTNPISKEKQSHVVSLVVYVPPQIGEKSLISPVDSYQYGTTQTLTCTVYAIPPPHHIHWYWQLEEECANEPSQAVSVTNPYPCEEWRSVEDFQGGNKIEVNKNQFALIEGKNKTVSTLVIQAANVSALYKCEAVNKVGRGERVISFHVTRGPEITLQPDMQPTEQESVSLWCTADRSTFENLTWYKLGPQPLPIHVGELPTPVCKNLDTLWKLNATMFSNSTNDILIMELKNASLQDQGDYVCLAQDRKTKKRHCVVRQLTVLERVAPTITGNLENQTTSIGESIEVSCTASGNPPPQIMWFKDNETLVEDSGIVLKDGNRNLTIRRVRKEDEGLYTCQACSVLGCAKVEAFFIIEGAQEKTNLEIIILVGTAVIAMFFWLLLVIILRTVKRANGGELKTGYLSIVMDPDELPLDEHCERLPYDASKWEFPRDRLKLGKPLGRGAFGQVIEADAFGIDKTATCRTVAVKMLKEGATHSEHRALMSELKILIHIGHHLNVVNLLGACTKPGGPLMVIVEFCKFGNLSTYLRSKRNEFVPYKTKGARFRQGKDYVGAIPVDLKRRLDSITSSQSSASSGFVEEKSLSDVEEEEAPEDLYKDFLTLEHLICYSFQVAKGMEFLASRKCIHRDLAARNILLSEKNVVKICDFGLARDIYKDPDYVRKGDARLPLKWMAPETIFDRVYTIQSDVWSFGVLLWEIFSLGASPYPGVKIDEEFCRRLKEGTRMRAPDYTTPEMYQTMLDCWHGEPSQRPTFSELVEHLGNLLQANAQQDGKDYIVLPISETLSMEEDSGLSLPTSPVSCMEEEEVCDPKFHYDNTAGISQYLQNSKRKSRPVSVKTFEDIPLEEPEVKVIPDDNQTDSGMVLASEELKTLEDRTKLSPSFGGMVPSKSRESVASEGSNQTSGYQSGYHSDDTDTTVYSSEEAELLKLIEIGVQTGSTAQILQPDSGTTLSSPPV

SMILES: COc1cc(/N=c2\ccc3ncc(-c4cnn(C)c4)nc3n2CC2COC2)c(F)c(OC)c1 [Compound 143]
- IC50 (KDR (h)): 0.00501 µM
- IC50 [1]: > 10 µM
- IC50 [2]: > 10 µM
- BAF3-FGFR1 (MIN IL3) pIC50 [3]: 5.48
- IC50 [4]: > 10 µM
- BAF3-FGFR3 (MIN IL3) pIC50 [5]: 5.42
- IC50 (FGFR3 (h)): 0.000759 µM
- BAF3-KDR (MIN IL3) pIC50 [6]: <5

SMILES: COc1cc(OC)c(F)c(N(Cc2nc(Br)c[nH]2)c2ccc3ncc(-c4cnn(C)c4)nc3n2)c1 [Compound 238]
- IC50 (KDR (h)): 0.0112 µM
- IC50 [1]: > 10 µM
- IC50 [2]: > 10 µM
- BAF3-FGFR1 (MIN IL3) pIC50 [3]: ~8.32
- IC50 [4]: > 10 µM
- BAF3-FGFR3 (MIN IL3) pIC50 [5]: ~8.45
- IC50 (FGFR3 (h)): 0.00117 µM
- BAF3-KDR (MIN IL3) pIC50 [6]: 6.46

SMILES: COc1cc(OC)cc(N(CC2COC2)c2ccc3ncc(-c4cnn(C)c4)nc3n2)c1 [Compound 142]
- IC50 (KDR (h)): 0.0741 µM
- IC50 [1]: > 10 µM
- IC50 [2]: > 10 µM
- BAF3-FGFR1 (MIN IL3) pIC50 [3]: 5.49
- IC50 [4]: > 10 µM
- BAF3-FGFR3 (MIN IL3) pIC50 [5]: 5.30
- IC50 (FGFR3 (h)): 0.00575 µM
- BAF3-KDR (MIN IL3) pIC50 [6]: <5

SMILES: COc1cc(OC)c(F)c(N(Cc2ncc[nH]2)c2ccc3ncc(N4CCOCC4)nc3n2)c1F [Compound 215]
- IC50 (KDR (h)): 0.0525 µM
- IC50 [1]: > 10 µM
- IC50 [2]: > 10 µM
- BAF3-FGFR1 (MIN IL3) pIC50 [3]: 8.25
- IC50 [4]: > 10 µM
- BAF3-FGFR3 (MIN IL3) pIC50 [5]: 8.18
- IC50 (FGFR3 (h)): ~0.00126 µM
- BAF3-KDR (MIN IL3) pIC50 [6]: 5.91

SMILES: COc1cc(OC)cc(N(CCN2CCCC2=O)c2ccc3ncc(-c4cnn(C)c4)nc3n2)c1 [Compound 151]
- IC50 (KDR (h)): 0.126 µM
- IC50 [1]: > 10 µM
- IC50 [2]: > 10 µM
- BAF3-FGFR1 (MIN IL3) pIC50 [3]: 5.56
- IC50 [4]: > 10 µM
- BAF3-FGFR3 (MIN IL3) pIC50 [5]: 5.72
- IC50 (FGFR3 (h)): 0.0107 µM
- BAF3-KDR (MIN IL3) pIC50 [6]: <5

SMILES: COc1cc(O)c(F)c(N(Cc2ncc[nH]2)c2ccc3ncc(-c4cnn(C)c4)nc3n2)c1 [Compound 96]
- IC50 (KDR (h)): 0.0115 µM
- IC50 [1]: > 10 µM
- IC50 [2]: > 10 µM
- BAF3-FGFR1 (MIN IL3) pIC50 [3]: 8.08
- IC50 [4]: > 10 µM
- BAF3-FGFR3 (MIN IL3) pIC50 [5]: ~8.09
- IC50 (FGFR3 (h)): 0.00107 µM
- BAF3-KDR (MIN IL3) pIC50 [6]: 5.89

SMILES: COc1cc(OC)c(F)c(N(CCNC(C)=O)c2ccc3ncc(-c4cnn(C)c4)nc3n2)c1 [Compound 242]
- IC50 (KDR (h)): 0.0282 µM
- IC50 [1]: > 10 µM
- IC50 [2]: > 10 µM
- BAF3-FGFR1 (MIN IL3) pIC50 [3]: 7.35
- IC50 [4]: > 10 µM
- BAF3-FGFR3 (MIN IL3) pIC50 [5]: ~8.11
- IC50 (FGFR3 (h)): 0.00186 µM
- BAF3-KDR (MIN IL3) pIC50 [6]: 5.49

SMILES: COc1cc(OC)c(F)c(N(Cc2cc(C)no2)c2ccc3ncc(-c4cnn(C)c4)nc3n2)c1 [Compound 185]
- IC50 (KDR (h)): 0.0178 µM
- IC50 [1]: > 10 µM
- IC50 [2]: > 10 µM
- BAF3-FGFR1 (MIN IL3) pIC50 [3]: 7.59
- IC50 [4]: > 10 µM
- BAF3-FGFR3 (MIN IL3) pIC50 [5]: 7.64
- IC50 (FGFR3 (h)): 0.000912 µM
- BAF3-KDR (MIN IL3) pIC50 [6]: 5.51

SMILES: CCn1cc(-c2cnc3ccc(N(Cc4ncc[nH]4)c4cc(OC)cc(OC)c4F)nc3n2)cn1 [Compound 223]
- IC50 (KDR (h)): 0.00708 µM
- IC50 [1]: > 10 µM
- IC50 [2]: > 10 µM
- BAF3-FGFR1 (MIN IL3) pIC50 [3]: 8.85
- IC50 [4]: > 10 µM
- BAF3-FGFR3 (MIN IL3) pIC50 [5]: ~8.58
- IC50 (FGFR3 (h)): 0.00123 µM
- BAF3-KDR (MIN IL3) pIC50 [6]: 6.81

SMILES: COc1cc(OC)c(F)c(N(CC2COC2)c2ccc3ncc(-c4cnn(C)c4)nc3n2)c1 [Compound 144]
- IC50 (KDR (h)): 0.0229 µM
- IC50 [1]: > 10 µM
- IC50 [2]: > 10 µM
- BAF3-FGFR1 (MIN IL3) pIC50 [3]: 6.44
- IC50 [4]: > 10 µM
- BAF3-FGFR3 (MIN IL3) pIC50 [5]: 6.33
- IC50 (FGFR3 (h)): 0.00174 µM
- BAF3-KDR (MIN IL3) pIC50 [6]: 5.19

SMILES: COc1cc(/N=c2\ccc3ncc(-c4cnn(CC(C)(C)O)c4)nc3n2CC(C)(C)O)c(F)c(OC)c1 (single isomer, unassigned) [Compound 207]
- IC50 (KDR (h)): 0.00832 µM
- IC50 [1]: > 10 µM
- IC50 [2]: > 10 µM
- BAF3-FGFR1 (MIN IL3) pIC50 [3]: 7.45
- IC50 [4]: > 10 µM
- BAF3-FGFR3 (MIN IL3) pIC50 [5]: ~7.57
- IC50 (FGFR3 (h)): 0.00117 µM
- BAF3-KDR (MIN IL3) pIC50 [6]: 6.11

SMILES: COc1cc(OC)cc(N(CCO)c2ccc3ncc(-c4ccncc4)nc3n2)c1 [Compound 213]
- IC50 (KDR (h)): 0.245 µM
- IC50 [1]: > 10 µM
- IC50 [2]: > 10 µM
- BAF3-FGFR1 (MIN IL3) pIC50 [3]: 6.57
- IC50 [4]: > 10 µM
- BAF3-FGFR3 (MIN IL3) pIC50 [5]: ~6.7
- IC50 (FGFR3 (h)): 0.0038 µM
- BAF3-KDR (MIN IL3) pIC50 [6]: 5.01

SMILES: COc1cc(OC)c(F)c(N(CCN(C2COC2)C2COC2)c2ccc3ncc(-c4cnn(C)c4)nc3n2)c1F (single isomer, unassigned) [Compound 163]
- IC50 (KDR (h)): 0.00851 µM
- IC50 [1]: > 10 µM
- IC50 [2]: > 10 µM
- BAF3-FGFR1 (MIN IL3) pIC50 [3]: 7.82
- IC50 [4]: > 10 µM
- BAF3-FGFR3 (MIN IL3) pIC50 [5]: 7.34
- IC50 (FGFR3 (h)): 0.00263 µM
- BAF3-KDR (MIN IL3) pIC50 [6]: 6.21

SMILES: COc1cc(OC)c(F)c(N(CC(C)(C)O)c2ccc3ncc(-c4cnn(CC(C)(C)O)c4)nc3n2)c1 (single isomer, unassigned) [Compound 208]
- IC50 (KDR (h)): 0.0776 µM
- IC50 [1]: > 10 µM
- IC50 [2]: > 10 µM
- BAF3-FGFR1 (MIN IL3) pIC50 [3]: 6.84
- IC50 [4]: > 10 µM
- BAF3-FGFR3 (MIN IL3) pIC50 [5]: ~7.15
- IC50 (FGFR3 (h)): 0.00372 µM
- BAF3-KDR (MIN IL3) pIC50 [6]: 5.57

SMILES: COc1cc(OC)c(F)c(N(CCN(C2COC2)C2COC2)c2ccc3ncc(-c4cnn(C)c4)nc3n2)c1 [Compound 222]
- IC50 (KDR (h)): 0.0407 µM
- IC50 [1]: > 10 µM
- IC50 [2]: > 10 µM
- BAF3-FGFR1 (MIN IL3) pIC50 [3]: 7.12
- IC50 [4]: > 10 µM
- BAF3-FGFR3 (MIN IL3) pIC50 [5]: ~7.19
- IC50 (FGFR3 (h)): 0.00389 µM
- BAF3-KDR (MIN IL3) pIC50 [6]: 5.68
